Experimental data taken from paper PMC12837263, “β,β-Dimethylacrylalkannin Restores Colistin Efficacy Against mcr- and TCS-Mediated Resistant Gram-Negative Bacteria via Membrane Disturbance” (Antibiotics, 2025).

How the values were obtained:
Type in all cases: cell-based
K. pneumoniae 126(mcr-8) = test: Checkerboard assay (MIC, FICI); details: 126
Experimental: (§1) The FICI of β,β-Dim–colistin combination was determined by a checkerboard assay. Briefly, two-fold serial dilutions of β,β-Dim and colistin were prepared in a 96-well plate. After incubation at 37 °C for 18 h with bacterial suspension (10^6 CFU/mL), OD600 values were measured. FICI = (MICβ,β-Dim in combination/MICβ,β-Dim) + (MICcolistin in combination/MICcolistin). The synergistic effect of β,β-Dim with other antibiotics was measured in the same way. Synergy was considered to be an FICI ≤ 0.5.

K. pneumoniae 109(mcr-8) = test: Checkerboard assay (MIC, FICI); details: 109
Experimental: as §1

[1] = system: K. pneumoniae 251(mgrB、phoP、pmrA、blaKPC); test: Checkerboard assay (MIC, FICI); details: 251
Experimental: as §1

P. aeruginosa PAO1 = test: Checkerboard assay (MIC, FICI); details: PAO1
Experimental: as §1

E. coli ZJ71(mcr-1) = test: Checkerboard assay (MIC, FICI); details: ZJ71
Experimental: as §1

A. baumannii ATCC 19606 = test: Checkerboard assay (MIC, FICI); details: 19606
Experimental: as §1

E. coli ATCC 25922 = test: Checkerboard assay (MIC, FICI); details: 25922
Experimental: as §1

[2] = system: E. coli BW25113-184-mcr-1; test: Checkerboard assay (MIC, FICI); details: BW25113-184-mcr-1
Experimental: as §1

K. pneumoniae ATCC 13883 = test: Checkerboard assay (MIC, FICI); details: 13883
Experimental: as §1

K. pneumoniae 20(mcr-1) = test: Checkerboard assay (MIC, FICI); details: 20(mcr-1)
Experimental: as §1

[3] = system: K. pneumoniae 29(mcr-8、pmrB、blaNDM); test: Checkerboard assay (MIC, FICI); details: 29
Experimental: as §1

E. coli 13f4(mcr-1) = test: Checkerboard assay (MIC, FICI); details: 13f4
Experimental: as §1

[4] = system: E. coli BW25113-pmrBR93P(pmrB); test: Checkerboard assay (MIC, FICI); details: BW25113-pmrBR93P
Experimental: as §1

P. aeruginosa 9(mcr-1) = test: Checkerboard assay (MIC, FICI); details: P. aeruginosa 9
Experimental: as §1

E. coli BW25113-184 = test: Checkerboard assay (MIC, FICI); details: BW25113-184
Experimental: as §1

[5] = system: S. Typhimurium 9891(mcr-1); test: Checkerboard assay (MIC, FICI); details: 9891
Experimental: as §1

[6] = system: K. pneumoniae 57(mcr-9、blaNDM); test: Checkerboard assay (MIC, FICI); details: 57
Experimental: as §1

[7] = system: E. coli BW25113-pmrAD82N(pmrA); test: Checkerboard assay (MIC, FICI); details: BW25113-pmrAD82N
Experimental: as §1

[8] = system: S. Typhimurium ATCC 14028; test: Checkerboard assay (MIC, FICI); details: 14028
Experimental: as §1

[9] = system: K. pneumoniae 492(mcr-1、blaNDM); test: Checkerboard assay (MIC, FICI); details: 492
Experimental: as §1

E. coli pHSG299-mcr-3 = test: Checkerboard assay (MIC, FICI); details: pHSG299-mcr-3
Experimental: as §1

[10] = system: K. pneumoniae 650(mgrB、phoP、pmrA、blaKPC); test: Checkerboard assay (MIC, FICI); details: 650
Experimental: as §1

[11] = system: K. pneumoniae 197(mcr-1、blaNDM); test: Checkerboard assay (MIC, FICI); details: 197
Experimental: as §1

[12] = system: K. pneumoniae 667(phoP、pmrA、blaKPC); test: Checkerboard assay (MIC, FICI); details: 667
Experimental: as §1

K. pneumoniae 667 = test: Bacterial growth curves; details: β,β-Dim 4 µg/mL, colistin 0.5 µg/mL, alone or combined; 24 h
Experimental: Overnight cultures of K. pneumoniae 667 and E. coli 13f4 were diluted to 10^6 CFU/mL; then, β,β-Dim (4 μg/mL), colistin (0.5 or 2 μg/mL), and their combination were co-incubated with bacterial suspensions in a 96-well plate. OD600 values were monitored hourly over a 24 h period.

[13] = system: K. pneumoniae, E. coli, Salmonella, P. aeruginosa, and A. baumannii; test: Checkerboard assay, panel of tested strains (summary statements); details: with β,β-Dim; summary over tested strains
Experimental: as §1

Substance: colistin
- MIC of colistin (K. pneumoniae 126(mcr-8); alone): > 512 mg/L
- Potentation (K. pneumoniae 126(mcr-8); fold drop of colistin MIC): 1024
- MIC of colistin [combination] (K. pneumoniae 126(mcr-8); with β,β-Dim): 0.5 mg/L
- MIC of colistin (K. pneumoniae 109(mcr-8); alone): 16 mg/L
- Potentation (K. pneumoniae 109(mcr-8); fold drop of colistin MIC): 64
- MIC of colistin [combination] (K. pneumoniae 109(mcr-8); with β,β-Dim): 0.25 mg/L
- MIC of colistin ([1]; alone): 512 mg/L
- Potentation ([1]; fold drop of colistin MIC): 1024
- MIC of colistin [combination] ([1]; with β,β-Dim): 0.5 mg/L
- MIC of colistin (P. aeruginosa PAO1; alone): 1 mg/L
- Potentation (P. aeruginosa PAO1; fold drop of colistin MIC): 2
- MIC of colistin [combination] (P. aeruginosa PAO1; with β,β-Dim): 0.5 mg/L
- MIC of colistin (E. coli ZJ71(mcr-1); alone): 4 mg/L
- Potentation (E. coli ZJ71(mcr-1); fold drop of colistin MIC): 8
- MIC of colistin [combination] (E. coli ZJ71(mcr-1); with β,β-Dim): 0.5 mg/L
- MIC of colistin (A. baumannii ATCC 19606; alone): 0.5 mg/L
- Potentation (A. baumannii ATCC 19606; fold drop of colistin MIC): 64
- MIC of colistin [combination] (A. baumannii ATCC 19606; with β,β-Dim): 0.0078 mg/L
- MIC of colistin (E. coli ATCC 25922; alone): 0.125 mg/L
- Potentation (E. coli ATCC 25922; fold drop of colistin MIC): 4
- MIC of colistin [combination] (E. coli ATCC 25922; with β,β-Dim): 0.0313 mg/L
- MIC of colistin ([2]; alone): 4 mg/L
- Potentation ([2]; fold drop of colistin MIC): 4
- MIC of colistin [combination] ([2]; with β,β-Dim): 1 mg/L
- MIC of colistin (K. pneumoniae ATCC 13883; alone): 0.5 mg/L
- Potentation (K. pneumoniae ATCC 13883; fold drop of colistin MIC): 4
- MIC of colistin [combination] (K. pneumoniae ATCC 13883; with β,β-Dim): 0.125 mg/L
- MIC of colistin (K. pneumoniae 20(mcr-1); alone): 64 mg/L
- Potentation (K. pneumoniae 20(mcr-1); fold drop of colistin MIC): 64
- MIC of colistin [combination] (K. pneumoniae 20(mcr-1); with β,β-Dim): 1 mg/L
- MIC of colistin ([3]; alone): 64 mg/L
- Potentation ([3]; fold drop of colistin MIC): 256
- MIC of colistin [combination] ([3]; with β,β-Dim): 0.25 mg/L
- MIC of colistin (E. coli 13f4(mcr-1); alone): 4 mg/L
- Potentation (E. coli 13f4(mcr-1); fold drop of colistin MIC): 4
- MIC of colistin [combination] (E. coli 13f4(mcr-1); with β,β-Dim): 1 mg/L
- MIC of colistin ([4]; alone): 8 mg/L
- Potentation ([4]; fold drop of colistin MIC): 32
- MIC of colistin [combination] ([4]; with β,β-Dim): 0.25 mg/L
- MIC of colistin (P. aeruginosa 9(mcr-1); alone): 4 mg/L
- Potentation (P. aeruginosa 9(mcr-1); fold drop of colistin MIC): 8
- MIC of colistin [combination] (P. aeruginosa 9(mcr-1); with β,β-Dim): 0.5 mg/L
- MIC of colistin (E. coli BW25113-184; alone): 0.125 mg/L
- Potentation (E. coli BW25113-184; fold drop of colistin MIC): 4
- MIC of colistin [combination] (E. coli BW25113-184; with β,β-Dim): 0.0313 mg/L
- MIC of colistin ([5]; alone): 16 mg/L
- Potentation ([5]; fold drop of colistin MIC): 8
- MIC of colistin [combination] ([5]; with β,β-Dim): 2 mg/L
- MIC of colistin ([6]; alone): 2 mg/L
- Potentation ([6]; fold drop of colistin MIC): 32
- MIC of colistin [combination] ([6]; with β,β-Dim): 0.0625 mg/L
- MIC of colistin ([7]; alone): 16 mg/L
- Potentation ([7]; fold drop of colistin MIC): 32
- MIC of colistin [combination] ([7]; with β,β-Dim): 0.5 mg/L
- MIC of colistin ([8]; alone): 1 mg/L
- Potentation ([8]; fold drop of colistin MIC): 2
- MIC of colistin [combination] ([8]; with β,β-Dim): 0.5 mg/L
- MIC of colistin ([9]; alone): 4 mg/L
- Potentation ([9]; fold drop of colistin MIC): 32
- MIC of colistin [combination] ([9]; with β,β-Dim): 0.125 mg/L
- MIC of colistin (E. coli pHSG299-mcr-3; alone): 2 mg/L
- Potentation (E. coli pHSG299-mcr-3; fold drop of colistin MIC): 16
- MIC of colistin ([10]; alone): 32 mg/L
- Potentation ([10]; fold drop of colistin MIC): 16
- MIC of colistin [combination] ([10]; with β,β-Dim): 2 mg/L
- MIC of colistin ([11]; alone): 4 mg/L
- Potentation ([11]; fold drop of colistin MIC): 8
- MIC of colistin [combination] ([11]; with β,β-Dim): 0.5 mg/L
- MIC of colistin ([12]; alone): 64 mg/L
- Potentation ([12]; fold drop of colistin MIC): 128
- MIC of colistin [combination] ([12]; with β,β-Dim): 0.5 mg/L
- bacterial growth (growth curves) (K. pneumoniae 667): neither β,β-Dim (4 µg/mL) nor colistin (0.5 µg/mL) alone inhibited the growth
- colistin MIC in combination [13]: ≤ 2 mg/L
- reduction of colistin MIC [13]: 4–1024 fold
